The target of this test is T1, MAGL (Homo sapiens, UniProt Q99685).
T1 sequence (Q99685 1-303): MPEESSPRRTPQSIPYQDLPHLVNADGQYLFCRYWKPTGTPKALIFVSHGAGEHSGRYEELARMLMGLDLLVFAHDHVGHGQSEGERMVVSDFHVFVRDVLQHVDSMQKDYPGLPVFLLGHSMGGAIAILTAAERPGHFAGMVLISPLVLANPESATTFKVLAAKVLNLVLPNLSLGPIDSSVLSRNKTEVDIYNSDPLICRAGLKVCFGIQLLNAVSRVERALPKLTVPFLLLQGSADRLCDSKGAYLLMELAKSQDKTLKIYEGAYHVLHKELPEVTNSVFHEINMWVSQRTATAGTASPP
Briefly: 2-AG assay (MAGL inhibitory activity, hydrolysis of 2-arachidonoylglycerol followed by mass spectrometry). In kind it is biochemical. Conditions: 50 pM MAGL, 8 μM 2-arachidonoylglycerol, 15 min preincubation, 30 min incubation at RT, concentration range 12.5 μM to 0.8 pM. As to the method: Compounds were profiled for MAGL inhibitory activity by determining the enzymatic activity by following the hydrolysis of the natural substrate 2-arachidonoylglycerol resulting in arachidonic acid, which can be followed by mass spectrometry. This assay is hereinafter abbreviated “2-AG assay”.
The 2-AG assay was carried out in 384 well assay plates (PP, Greiner Cat #784201) in a total volume of 20 μL. Compound dilutions were made in 100% DMSO (VWR Chemicals 23500.297) in a polypropylene plate in 3-fold dilution steps to give a final concentration range in the assay from 12.5 μM to 0.8 pM. 0.25 μL compound dilutions (100% DMSO) were added to 9 μL MAGL in assay buffer (50 mM TRIS (GIBCO, 15567-027), 1 mM EDTA (Fluka, 03690-100 mL), 0.01% (v/v) Tween. After shaking, the plate was incubated for 15 min at RT. To start the reaction, 10 μL 2-arachidonoylglycerol in assay buffer was added. The final concentrations in the assay was 50 pM MAGL and 8 μM 2-arachidonoylglyerol. After shaking and 30 min incubation at RT, the reaction was quenched by the addition of 40 μL of ACN containing 4 μM of d8-arachidonic acid. The amount of arachidonic acid was traced by an online SPE system (Agilent Rapidfire) coupled to a triple quadrupole mass spectrometer (Agilent 6460). A C18 SPE cartridge (G9205A) was used in an ACN/water liquid setup. The mass spectrometer was operated in negative electrospray mode following the mass transitions 303.1→259.1 for arachidonic acid and 311.1→267.0 for d8-arachidonic acid. The activity of the compounds was calculated based on the ratio of intensities [arachidonic acid/d8-arachidonic acid].

Regarding `O=C1CCC(CCC(=O)N2C[C@@H]3CN(Cc4ccc(C(F)(F)F)cc4F)C[C@H]3C2)N1` (single isomer, unassigned; (+)) [Example 12], inhibition was half-maximal at 2310 nM (IC50).

`O=C1COCC(CCC(=O)N2CC(OCc3ccc(C(F)(F)F)cc3F)C2)N1` (single isomer, unassigned; (+)) [Example 51, (+)-5-[3-[3-[[2-Fluoro-4-(trifluoromethyl)phenyl]methoxy]azetidin-1-yl]-3-oxo-propyl]morpholin-3-one] displayed an IC50 of 287 nM.

Compound `O=C1CCC(CCC(=O)N2CC(OCc3ccc(C(F)(F)F)cc3F)C2)N1` (single isomer, unassigned; (-)) [Example 1, (−)-5-[3-[3-[[2-Fluoro-4-(trifluoromethyl)phenyl]methoxy]azetidin-1-yl]-3-oxo-propyl]pyrrolidin-2-one] gave an IC50 of 3960 nM.

`CC(C)(C)c1ccc(C2CN(C(=O)CCC3CCC(=O)N3)C2)cc1` (single isomer, unassigned; (-)) [Example 3, (−)-5-[3-[3-(4-tert-Butylphenyl)azetidin-1-yl]-3-oxo-propyl]pyrrolidin-2-one] came in with an IC50 of 273 nM.

For the compound `O=C1CCC(CCC(=O)N2CC(c3ccc(C4(C(F)(F)F)CC4)cc3)C2)N1` (single isomer, unassigned; (-)) [Example 5, (−)-5-[3-Oxo-3-[3-[4-[1-(trifluoromethyl)cyclopropyl]phenyl]azetidin-1-yl]propyl]pyrrolidin-2-one], the IC50 is 627 nM.

In turn, `O=C1CCC(CCC(=O)N2CC(c3ccc(-c4ccc(F)cc4F)cc3)C2)N1` (single isomer, unassigned; (-)) [Example 9, (−)-5-[3-[3-[4-(2,4-Difluorophenyl)phenyl]azetidin-1-yl]-3-oxo-propyl]pyrrolidin-2-one] registered an IC50 of 550 nM.

The compound `O=C1CCC(CCC(=O)N2C[C@@H]3CN(Cc4ccc(C(F)(F)F)cc4F)C[C@H]3C2)N1` (single isomer, unassigned; (-)) [Example 11] showed an IC50 not below 12500 nM.

Compound `O=C1COCC(CCC(=O)N2CC(OCc3ccc(C(F)(F)F)cc3F)C2)N1` (single isomer, unassigned; (-)) [Example 50, (−)-5-[3-[3-[[2-Fluoro-4-(trifluoromethyl)phenyl]methoxy]azetidin-1-yl]-3-oxo-propyl]morpholin-3-one] gave an IC50 not below 12500 nM.

The compound `CC1(CCC(=O)N2CC(OCc3ccc(C(F)(F)F)cc3F)C2)CCC(=O)N1` (stereo not drawn) [Example 14, (+)- or (−)-5-[3-[3-[[2-Fluoro-4-(trifluoromethyl)phenyl]methoxy]azetidin-1-yl]-3-oxo-propyl]-5-methyl-pyrrolidin-2-one] displayed an IC50 of 2110 nM.

The compound `O=C1N[C@@H](CCC(=O)N2CC(OCc3ccc(C(F)(F)F)cc3F)C2)CO1` [Example 19, (4S)-4-[3-[3-[[2-Fluoro-4-(trifluoromethyl)phenyl]methoxy]azetidin-1-yl]-3-oxo-propyl]oxazolidin-2-one] yielded an IC50 of 1550 nM.

The compound `O=C1N[C@H](CCC(=O)N2CC(OCc3ccc(C(F)(F)F)cc3F)C2)CO1` [Example 20, (4R)-4-[3-[3-[[2-Fluoro-4-(trifluoromethyl)phenyl]methoxy]azetidin-1-yl]-3-oxo-propyl]oxazolidin-2-one] returned an IC50 of 7 nM.

With `O=C1N[C@@H](CCC(=O)N2CC(c3ccc(C4(C(F)(F)F)CC4)cc3)C2)CO1` [Example 21, (4S)-4-[3-Oxo-3-[3-[4-[1-(trifluoromethyl)cyclo-propyl]phenyl]azetidin-1-yl]propyl]oxazolidin-2-one], the IC50 is 254 nM.

As for `O=C1N[C@H](CCC(=O)N2CC(c3ccc(C4(C(F)(F)F)CC4)cc3)C2)CO1` [Example 22, (4R)-4-[3-Oxo-3-[3-[4-[1-(trifluoromethyl)cyclo-propyl]phenyl]azetidin-1-yl]propyl]oxazolidin-2-one], the IC50 was found to be 1 nM.

For the compound `O=C1N[C@@H](CCC(=O)N2CC(c3ccc(-c4ccc(F)cc4F)cc3)C2)CO1` [Example 23, (4S)-4-[3-[3-[4-(2,4-Difluorophenyl)phenyl]azetidin-1-yl]-3-oxo-propyl]oxazolidin-2-one], the IC50 was 381 nM.

In turn, `O=C1N[C@H](CCC(=O)N2CC(c3ccc(-c4ccc(F)cc4F)cc3)C2)CO1` [Example 24, (4R)-4-[3-[3-[4-(2,4-Difluorophenyl)phenyl]azetidin-1-yl]-3-oxo-propyl]oxazolidin-2-one] returned an IC50 of 2 nM.

As to `CC(C)(Oc1ccc(C2CN(C(=O)CC[C@@H]3COC(=O)N3)C2)cc1)C(F)(F)F` [Example 25, (4R)-4-[3-Oxo-3-[3-[4-(2,2,2-trifluoro-1,1-dimethyl-ethoxy)phenyl]azetidin-1-yl]propyl]oxazolidin-2-one], the IC50 was 1 nM.

Consider `O=C1N[C@H](CCC(=O)N2CC(OCc3ccc(S(F)(F)(F)(F)F)cc3F)C2)CO1` [Example 26, (4R)-4-[3-[3-[[2-Fluoro-4-(pentafluoro-λ^6-sulfanyl)phenyl]methoxy]azetidin-1-yl]-3-oxo-propyl]oxazolidin-2-one], for which the IC50 amounted to 4 nM.

Compound `O=C1N[C@H](CCC(=O)N2CC3(CC(Cc4ccc(F)cc4F)C3)C2)CO1` [Example 27, (4R)-4-[3-[6-[(2,4-Difluorophenyl)methyl]-2-azaspiro[3.3]heptan-2-yl]-3-oxo-propyl]oxazolidin-2-one] gave an IC50 of 0.5 nM.

`O=C1N[C@H](CCC(=O)N2CC(c3ccc(Oc4ccccc4Cl)nc3)C2)CO1` [Example 28, (4R)-4-[3-[3-[6-(2-Chlorophenoxy)-3-pyridyl]azetidin-1-yl]-3-oxo-propyl]oxazolidin-2-one]: it took 10 nM to reach half-maximal inhibition (IC50).

The compound `O=C1N[C@H](CCC(=O)N2CC3(CC(Oc4ccc(F)cc4Cl)C3)C2)CO1` [Example 29, (4R)-4-[3-[6-(2-Chloro-4-fluoro-phenoxy)-2-azaspiro[3.3]heptan-2-yl]-3-oxo-propyl]oxazolidin-2-one] gave an IC50 of 6 nM.

In turn, `O=C1N[C@H](CCC(=O)N2CC(c3ccc(Oc4ccc(F)cc4)cc3)C2)CO1` [Example 30, (4R)-4-[3-[3-[4-(4-Fluorophenoxy)phenyl]azetidin-1-yl]-3-oxo-propyl]oxazolidin-2-one] returned an IC50 of 1 nM.

In turn, `O=C1N[C@H](CCC(=O)N2CC(c3ccc(Oc4ccc(OC(F)(F)F)cc4)nc3)C2)CO1` [Example 31, (4R)-4-[3-Oxo-3-[3-[6-[4-(trifluoromethoxy)phenoxy]-3-pyridyl]azetidin-1-yl]propyl]oxaazolidin-2-one] gave an IC50 of 83 nM.

The compound `O=C1N[C@H](CCC(=O)N2CC3(CC(Oc4cncc(C(F)(F)F)n4)C3)C2)CO1` [Example 32, (4R)-4-[3-Oxo-3-[6-[6-(trifluoromethyl)pyrazin-2-yl]oxy-2-azaspiro[3.3]heptan-2-yl]propyl]oxazolidin-2-one] showed an IC50 of 17 nM.

Compound `O=C1N[C@H](CCC(=O)N2CC(C#Cc3cccc(Cl)c3)C2)CO1` [Example 33, (4R)-4-[3-[3-[2-(3-Chlorophenyl)ethynyl]azetidin-1-yl]-3-oxo-propyl]oxazolidin-2-one] displayed an IC50 of 12 nM.

As for `O=C1N[C@H](CCC(=O)N2CC(c3ccc(N4CCC(C(F)(F)F)C4)nc3)C2)CO1` (stereo partly drawn) [Example 34, (4R)-4-[3-Oxo-3-[3-[6-[3-(trifluoromethyl)pyrrolidin-1-yl]-3-pyridyl]azetidin-1-yl]propyl]oxazolidin-2-one], the concentration for half-maximal inhibition (IC50) was determined as 14 nM.

In turn, `CC(C[C@@H]1COC(=O)N1)C(=O)N1CC(OCc2ccc(C(F)(F)F)cc2F)C1` (stereo partly drawn) [Example 35, (4R)-4-[3-[3-[[2-Fluoro-4-(trifluoromethyl)phenyl]methoxy]azetidin-1-yl]-2-methyl-3-oxo-propyl]oxazolidin-2-one] returned an IC50 of 13 nM.

`O=C(CCc1cnn[nH]1)N1CC(OCc2ccc(C(F)(F)F)cc2F)C1` [Example 36, 1-(3-((2-Fluoro-4-(trifluoromethyl)benzyl)oxy)azetidin-1-yl)-3-(1H-1,2,3-triazol-5-yl)propan-1-one] came in with an IC50 of 4030 nM.

Consider `O=C(CCc1cnn[nH]1)N1CC(c2ccc(C3(C(F)(F)F)CC3)cc2)C1` [Example 37, 3-(1H-1,2,3-Triazol-5-yl)-1-(3-(4-(1-(trifluoromethyl)cyclo-propyl)phenyl)azetidin-1-yl)propan-1-one], for which the IC50 was determined as 339 nM.

With `CC(C)(Oc1ccc(C2CN(C(=O)CCc3cnn[nH]3)C2)cc1)C(F)(F)F` [Example 38, 3-(1H-1,2,3-Triazol-5-yl)-l-(3-(4-((1,1,1-trifluoro-2-methylpropan-2-yl)oxy)phenyl)azetidin-1-yl)propan-1-one], the IC50 came out at 234 nM.

For the origin of these results see patent publication US11981661B2, “Heterocyclic compounds” (Hoffmann-La Roche Inc., priority 2020, dated 2024).
